Results reported in PubChem BioAssay (NCI).
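1) Cells in 96-well plates. 2) Compound, 48 h, 5 concentrations. 3) Linear interpolation between surrounding doses. 4) Unreached endpoint = highest concentration. TGI marks complete inhibition of growth.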

Key:
Experiment in all cases: NCI tumour cell line growth inhibition, 48 h
[1] = tested on: A498 renal
[2] = tested on: ACHN renal
[3] = tested on: SF-295 CNS
[4] = tested on: T-47D breast
[5] = tested on: K-562 leukemia
[6] = tested on: MALME-3M melanoma
[7] = tested on: OVCAR-8 ovarian
[8] = tested on: OVCAR-4 ovarian
[9] = tested on: RXF 393 renal
[10] = tested on: SK-MEL-5 melanoma
[11] = tested on: HCT-15 colon
[12] = tested on: HS 578T breast
[13] = tested on: U251 CNS
[14] = tested on: 786-0 renal
[15] = tested on: A549 NSCLC
[16] = tested on: IGROV1 ovarian
[17] = tested on: KM12 colon
[18] = tested on: HL-60(TB) leukemia
[19] = tested on: SR leukemia
[20] = tested on: MOLT-4 leukemia
[21] = tested on: NCI-H226 lung
[22] = tested on: UO-31 renal
[23] = tested on: NCI/ADR-RES ovarian
[24] = tested on: OVCAR-5 ovarian
[25] = tested on: DU-145 prostate
[26] = tested on: SN12C renal
[27] = tested on: CAKI-1 renal
[28] = tested on: NCI-H23 lung
[29] = tested on: SW-620 colon
[30] = tested on: OVCAR-3 ovarian
[31] = tested on: HCT-116 colon
[32] = tested on: HT29 colon
[33] = tested on: MDA-MB-435
[34] = tested on: LOX IMVI melanoma
[35] = tested on: BT-549 breast
[36] = tested on: M14 melanoma
[37] = tested on: MCF7 breast
[38] = tested on: CCRF-CEM leukemia
[39] = tested on: MDA-N
[40] = tested on: RPMI-8226 leukemia
[41] = tested on: MDA-MB-231 breast
[42] = tested on: SNB-75 CNS
[43] = tested on: HOP-92 NSCLC
[44] = tested on: COLO 205 colon
[45] = tested on: UACC-257 melanoma
[46] = tested on: SK-MEL-28 melanoma
[47] = tested on: SNB-19 CNS
[48] = tested on: NCI-H522 lung
[49] = tested on: EKVX NSCLC
[50] = tested on: NCI-H460 lung
[51] = tested on: UACC-62 melanoma
[52] = tested on: SF-268 CNS
[53] = tested on: SF-539 CNS
[54] = tested on: SK-OV-3 ovarian
[55] = tested on: SK-MEL-2 melanoma
[56] = tested on: PC-3 prostate
[57] = tested on: HOP-62 NSCLC
[58] = tested on: TK-10 renal
[59] = tested on: HCC-2998 colon

## CCOC(=O)CCC(NC(=O)c1ccc(OCc2nc3cc(C(F)(F)F)ccc3nc2-c2ccccc2)cc1)C(=O)OCC (centres undefined)
[1]
  TGI: > 100 µM
[2]
  TGI: > 100 µM
[3]
  TGI: > 100 µM
[4]
  TGI: > 100 µM
[5]
  TGI: > 100 µM
[6]
  TGI: > 100 µM
[7]
  TGI: > 100 µM
[8]
  TGI: 38.4 µM
[9]
  TGI: > 100 µM
[10]
  TGI: 60.4 µM
[11]
  TGI: > 100 µM
[12]
  TGI: > 100 µM
[13]
  TGI: > 100 µM
[14]
  TGI: > 100 µM
[15]
  TGI: > 100 µM
[16]
  TGI: > 100 µM
[17]
  TGI: > 100 µM
[18]
  TGI: > 100 µM
[19]
  TGI: > 100 µM
[20]
  TGI: > 100 µM
[21]
  TGI: > 100 µM
[22]
  TGI: > 100 µM
[23]
  TGI: > 100 µM
[24]
  TGI: > 100 µM
[25]
  TGI: > 100 µM
[26]
  TGI: > 100 µM
[27]
  TGI: > 100 µM
[28]
  TGI: > 100 µM
[29]
  TGI: > 100 µM
[30]
  TGI: > 100 µM
[31]
  TGI: > 100 µM
[32]
  TGI: > 100 µM
[33]
  TGI: > 100 µM
[34]
  TGI: > 100 µM
[35]
  TGI: > 100 µM
[36]
  TGI: > 100 µM
[37]
  TGI: 19.4 µM
[38]
  TGI: > 100 µM
[39]
  TGI: > 100 µM
[40]
  TGI: > 100 µM
[41]
  TGI: > 100 µM
[42]
  TGI: 52.1 µM
[43]
  TGI: > 100 µM
[44]
  TGI: 32.3 µM
[45]
  TGI: > 100 µM
[46]
  TGI: > 100 µM
[47]
  TGI: > 100 µM
[48]
  TGI: > 100 µM
[49]
  TGI: > 100 µM
[50]
  TGI: > 100 µM
[51]
  TGI: > 100 µM
[52]
  TGI: > 100 µM
[53]
  TGI: > 100 µM
[54]
  TGI: > 100 µM
[55]
  TGI: 54.1 µM
[56]
  TGI: > 100 µM

## CCCCc1c(O)nc(Nc2nc3ccccc3[nH]2)[nH]c1=O
[1]
  TGI: > 100 µM
[2]
  TGI: > 100 µM
[3]
  TGI: > 100 µM
[4]
  TGI: > 100 µM
[5]
  TGI: > 100 µM
[6]
  TGI: > 100 µM
[7]
  TGI: > 100 µM
[8]
  TGI: > 100 µM
[9]
  TGI: > 100 µM
[10]
  TGI: > 100 µM
[11]
  TGI: > 100 µM
[12]
  TGI: 88 µM
[13]
  TGI: > 100 µM
[14]
  TGI: > 100 µM
[15]
  TGI: > 100 µM
[16]
  TGI: > 100 µM
[17]
  TGI: > 100 µM
[18]
  TGI: > 100 µM
[19]
  TGI: > 100 µM
[20]
  TGI: > 100 µM
[21]
  TGI: > 100 µM
[23]
  TGI: > 100 µM
[24]
  TGI: > 100 µM
[25]
  TGI: > 100 µM
[26]
  TGI: > 100 µM
[27]
  TGI: > 100 µM
[28]
  TGI: > 100 µM
[29]
  TGI: > 100 µM
[30]
  TGI: > 100 µM
[31]
  TGI: > 100 µM
[32]
  TGI: > 100 µM
[33]
  TGI: > 100 µM
[34]
  TGI: > 100 µM
[35]
  TGI: > 100 µM
[36]
  TGI: > 100 µM
[37]
  TGI: > 100 µM
[38]
  TGI: > 100 µM
[39]
  TGI: > 100 µM
[40]
  TGI: > 100 µM
[41]
  TGI: > 100 µM
[42]
  TGI: > 100 µM
[44]
  TGI: > 100 µM
[45]
  TGI: > 100 µM
[46]
  TGI: > 100 µM
[47]
  TGI: > 100 µM
[48]
  TGI: > 100 µM
[49]
  TGI: > 100 µM
[50]
  TGI: > 100 µM
[51]
  TGI: > 100 µM
[57]
  TGI: > 100 µM
[58]
  TGI: > 100 µM
[52]
  TGI: > 100 µM
[53]
  TGI: > 100 µM
[54]
  TGI: > 100 µM
[55]
  TGI: > 100 µM
[56]
  TGI: > 100 µM

## CSC1=Nc2ccccc2N(C)c2c1c(-c1ccccc1)nn2C
[2]
  TGI: > 100 µM
[3]
  TGI: 33.6 µM
[4]
  TGI: 49.7 µM
[5]
  TGI: 55.9 µM
[7]
  TGI: > 100 µM
[8]
  TGI: > 100 µM
[9]
  TGI: > 100 µM
[10]
  TGI: 43.4 µM
[11]
  TGI: > 100 µM
[12]
  TGI: > 100 µM
[13]
  TGI: > 100 µM
[15]
  TGI: > 100 µM
[16]
  TGI: > 100 µM
[17]
  TGI: > 100 µM
[18]
  TGI: 34.3 µM
[19]
  TGI: 95 µM
[20]
  TGI: 31.7 µM
[23]
  TGI: > 100 µM
[24]
  TGI: > 100 µM
[25]
  TGI: > 100 µM
[26]
  TGI: > 100 µM
[27]
  TGI: > 100 µM
[28]
  TGI: > 100 µM
[29]
  TGI: > 100 µM
[30]
  TGI: > 100 µM
[31]
  TGI: > 100 µM
[32]
  TGI: > 100 µM
[33]
  TGI: > 100 µM
[59]
  TGI: 56 µM
[34]
  TGI: > 100 µM
[35]
  TGI: > 100 µM
[36]
  TGI: > 100 µM
[37]
  TGI: > 100 µM
[38]
  TGI: 53.1 µM
[39]
  TGI: > 100 µM
[40]
  TGI: 37.1 µM
[41]
  TGI: > 100 µM
[42]
  TGI: > 100 µM
[43]
  TGI: > 100 µM
[44]
  TGI: > 100 µM
[45]
  TGI: > 100 µM
[46]
  TGI: > 100 µM
[48]
  TGI: > 100 µM
[49]
  TGI: > 100 µM
[50]
  TGI: > 100 µM
[51]
  TGI: > 100 µM
[58]
  TGI: > 100 µM
[52]
  TGI: > 100 µM
[53]
  TGI: > 100 µM
[54]
  TGI: > 100 µM
[55]
  TGI: 82.7 µM
[56]
  TGI: > 100 µM
